The subject of assay [1] is Candida albicans ATCC 10231. The assay can be described thus: Challenge growth test, fluconazole and chelator within a semi-permeable device. The format is cell-based. The text has this: In one such culture, only medium was present as a control. […] The chelator was not added directly to the culture medium but was provided as within a dialysis membrane within the culture medium, such that only the external surfaces of the dialysis membrane device were in contact with the bulk of the culture medium, the chelator being within the membrane bag. The dialysis membrane was of the same type that had been used to prepare the soluble chelator and thus its use here ensured that the added chelator would be retained within the membrane device as in contact with the culture medium from within a semi-permeable membrane, i.e., the dialysis tubing. […] All four test cultures were inoculated with the yeast and growth was monitored at intervals in the test cultures by optical density measurement at 600 nm over a 120 hr test period.

The subject of assay [2] is Candida albicans ATCC 10231. The assay can be described thus: Fluconazole MIC (80% growth inhibition) with soluble chelator. The format is cell-based. As to the method: Candida albicans ATCC 10231, yeast cells, as grown in defined medium with no additional added Fe as in example 18, were tested in the same media for their sensitivities to fluconazole, an anti-cellular agent as proto-typical of the azole class of antibiotics that are commonly used to control fungal growth and pathogenesis in humans and with fluconazole plus the soluble chelating composition, as prepared in Example 4. Fluconazole as a typical member of the azole class of anti-fungal antibiotics that function by inhibiting sterol synthesis.

Assay [3] has as its system P. aeruginosa. The assay can be described thus: MIC of chelators in Fe-restricted RPMI. The format is cell-based, Pseudomonas aeruginosa. The protocol:
(§1) Soluble chelating compositions prepared as in example 4 and example 6 as well as the commercially clinically used low molecular weight (<1500 Da) chelators desferal (Novartis Pharmaceutical Company) and deferiprone (Apotex Pharmaceutical Company) were tested as to their MICs against representative pathogenic bacterial species in RPMI medium that had been treated as in example 38 but to which Fe was re-added to known concentrations that permitted growth of the bacteria under partially Fe restrictive conditions, i.e., so as to simulate the low Fe environmental supply available during infection by these bacteria in man or other animals. MIC testing was done in a manner similar to that described for example 15 but with test series being conducted in multi-well microtiter plates, each well providing a separate treatment test.
(§2) The clinically used chelators were not inhibitory in the case of Pseudomonas aeruginosa with no inhibition observed at the highest concentration tested (300 μg/ml for desferal and 100 μg/ml for deferiprone). Staphylococcus aureus was not inhibited by desferal and was inhibited by deferiprone to a lesser extent than for the soluble compositions of the present invention. Conversely, Escherichia coli was not inhibited by deferiprone but was inhibited substantially by desferal.

Assay [4] relates to E. coli. As to the kind of experiment: MIC of chelators in Fe-restricted RPMI. The format is cell-based, Escherichia coli. The following applies: Escherichia coli. As to the method:
as §1, §2

The subject of assay [5] is S. aureus. As to the kind of experiment: MIC of chelators in Fe-restricted RPMI. The following applies: Staphylococcus aureus. The format is cell-based. As to the method: as §1, §2
In assay [6] the test system is Candida albicans ATCC 10231. The assay can be described thus: Growth with chelating materials of different molecular weight, 84 hours. The format is cell-based. The following applies: 30° C., defined medium without added iron, FIG. 8. As to the method:
Candida albicans ATCC 10231 was tested for its sensitivities to: the medical chelator deferiprone (#1 in the graph of FIG. 8) (a product of Apotex Pharmaceuticals); the precursor chemicals used for the preparation of soluble chelating compositions of the present invention, including 3-hydroxy-2-methyl-4-pyrone (#2 in the graph of FIG. 8), AHMP as from Example 1 (#3 in the graph of FIG. 8) and MAHMP as from Example 2 (#4 in the graph of FIG. 8) and also the soluble chelating composition as from Example 4 (#5 in the graph of FIG. 8). The yeast was grown in defined medium as for Example 18 with no additional added iron (i.e., the only but adequate Fe available for the yeast was contributed from being present along with the other added medium components). Growth of the yeast in the defined media with added test chelating materials was compared to control samples that had not received any of the chelating materials following 84 hours of incubation and growth at 30° C. […] These chelators being internalized by the yeast were incapable of restricting iron supply to the yeast cells. […] Thus, low molecular weight chelators such as deferiprone and similar compounds permitted growth while the soluble chelating composition that contained functional groups similar to deferiprone but was a molecular weight higher than 1500 Daltons restricted growth, eventhough the various compounds tested were each capable of binding iron through their pyridinone functionality.

For assay [7], the system named is Candida albicans ATCC 10231. The assay can be described thus: Challenge growth test, sorbate and chelator within a semi-permeable device. The format is cell-based. The following applies: sorbate […] with 0.3 mg soluble chelator (example 4) in the semi-permeable device. The text has this:
In one such culture, only medium was present as a control. […] The chelator was not added directly to the culture medium but was provided as within a dialysis membrane within the culture medium, such that only the external surfaces of the dialysis membrane device were in contact with the bulk of the culture medium, the chelator being within the membrane bag. The dialysis membrane was of the same type that had been used to prepare the soluble chelator and thus its use here ensured that the added chelator would be retained within the membrane device as in contact with the culture medium from within a semi-permeable membrane, i.e., the dialysis tubing. Thus the chelator would not be in direct physical contact with the yeast cells while any iron or sorbate or other low molecular weight media constituents or low molecular weight yeast cell products in the test milieu could diffuse in or out of the semi-permeable device. In a fourth test, 0.3 mg soluble chelator within a similar dialysis bag was added but sorbate was not added to the medium. All four test cultures were inoculated with the yeast and growth was monitored at intervals in the test cultures by optical density measurement at 600 nm over a 120 hr test period.

The subject of assay [8] is Candida albicans ATCC 10231. The assay can be described thus: Preservative agent MIC (80% inhibition) challenge test with soluble chelator. The format is cell-based.

Consider 5 molecules from patent US10709784B2, “Metal chelating compositions and methods for controlling the growth or activities of a living cell or organism” (CHELATION PARTNERS INCORPORATED, priority 2011, dated 2020).

Like-named read-outs stand apart in the source and are kept apart here.

As to `OC(Cn1cncn1)(Cn1cncn1)c1ccc(F)cc1F` [Fluconazole], the “yeast growth (OD 600 nm over 120 hr)” value in assay [1] (fluconazole 0.083 μg/ml alone) is “only delayed and partially restricted yeast growth”; in assay [1] (fluconazole 0.083 μg/ml with 0.3 mg soluble chelator (example 4) in the semi-permeable device) it was “prevented growth completely”. For the same molecule, the MIC in assay [2] (ATCC10231, 96 h, Fluconazole alone, 4 d) is greater than 6 µg/mL; in assay [2] (ATCC10231, 96 h, plus 25 μg/ml soluble chelator (example 4), 4 d), less than 0.05 µg/mL; in assay [2] (ATCC10231, 96 h, plus Fe-saturated soluble chelator, 4 d) it was greater than 6 µg/mL; in assay [2] (ATCC10231, 96 h, plus […] soluble chelator (Example 4), 4 d), less than 0.05 µg/mL; in assay [2] (ATCC10231, 240 h, Fluconazole alone, 10 d), greater than 6 µg/mL; in assay [2] (ATCC10231, 240 h, plus 25 μg/ml soluble chelator (example 4), 10 d) it was less than 0.05 µg/mL. Besides, the MIC is greater than 6 µg/mL in assay [2] (ATCC10231, 240 h, plus Fe-saturated soluble chelator, 10 d); 0.05 µg/mL in assay [2] (ATCC10231, 240 h, plus […] soluble chelator (Example 4), 10 d); greater than 6 µg/mL in assay [2] (ATCC10231, Fluconazole alone, 42 d); less than 0.05 µg/mL in assay [2] (ATCC10231, plus 25 μg/ml Soluble chelator (Example 4), 42 d); greater than 6 µg/mL in assay [2] (ATCC10231, plus Fe-saturated soluble chelator, 42 d); 0.19 µg/mL in assay [2] (ATCC10231, plus […] soluble chelator (Example 4), 42 d).
Take `CC(=O)N(O)CCCCCNC(=O)CCC(=O)N(O)CCCCCNC(=O)CCC(=O)N(O)CCCCCN` [DESFERAL, deferoxamine]: the MIC is greater than 300 µg/mL in assay [3] (Pseudomonas aeruginosa, treated RPMI with 0.02 μM Fe, read-out: MIC); greater than 300 µg/mL in assay [3] (treated RPMI with 0.09 μM Fe); 0.59 µg/mL in assay [4] (treated RPMI with 0.09 μM Fe); 0.009 µg/mL in assay [4] (treated RPMI with 0.02 μM Fe, read-out: MIC); greater than 300 µg/mL in assay [5] (treated RPMI with 0.02 μM Fe); greater than 300 µg/mL in assay [5] (treated RPMI with 0.09 μM Fe).
`C=C(C)C(=O)NCCn1ccc(=O)c(O)c1C` [MAHMP, 3-hydroxy-1-(β-methacrylamidoethyl)-2-methyl-4(1H)-pyridinone]: in assay [6], the “growth of the yeast compared to control” value is “did not substantially restrict growth”.
As to `Cc1c(O)c(=O)ccn1CCN` [AHMP, 1-aminoethyl-3-hydroxy-2-methyl-4(1H)-pyridinone], the “growth of the yeast compared to control” value in assay [6] is listed as “did not substantially restrict growth”.
Regarding `C/C=C/C=C/C(=O)[O-].[K+]` [Sorbate, potassium sorbate], the “yeast growth (OD 600 nm over 120 hr)” value in assay [7] is “prevented growth completely”. The MIC in assay [8] (ATCC10231, 48 h, read-out: Sorbate or Paraben MIC, plus soluble chelating composition (Example 4) 25 μg/ml, 2 days) was less than 20 µg/mL; in assay [8] (ATCC10231, 48 h, read-out: Sorbate or Paraben MIC, plus soluble chelating composition (Example 4) […], 2 days), less than 20 µg/mL; in assay [8] (ATCC10231, 48 h, read-out: Sorbate or Paraben MIC, preservative alone, 2 days), 120 µg/mL; in assay [8] (ATCC10231, 240 h, read-out: Sorbate or Paraben MIC, plus soluble chelating composition (Example 4) 25 μg/ml, 10 days), 30 µg/mL; in assay [8] (ATCC10231, 240 h, read-out: Sorbate or Paraben MIC, plus soluble chelating composition (Example 4) […], 10 days), less than 20 µg/mL; in assay [8] (ATCC10231, 240 h, read-out: Sorbate or Paraben MIC, preservative alone, 10 days), 250 µg/mL.
